In paper PMC12040169 (PLOS Biology, 2025):

Test: in vitro
Details: human, hela cells, % viability

First: Cc1cc(C)n2ncc(C(=O)N3CCCC3c3ccc(F)cc3)c2n1 (stereo not drawn) [CBK305885]
Second: C=Cn1ncc(CN2CCCC(O)(c3ccc(F)cc3)CC2)c1C (stereo not drawn) [CBK284837]
The viability at 28.5 h, 10 µM of the first is lower: 82.9% for the first, 89.3% for the second.

Compared with `C#CCNS(=O)(=O)c1ccc(C(=O)Nc2ccnn2Cc2ccccc2)cc1` [CBK297727], `COc1ccc(/C(N)=N/OC(=O)CN(C)S(=O)(=O)c2ccccc2)cc1` [CBK267683] is lower in viability at 28.5 h, 10 µM: 96.4% for the first, 93% for the second.

Compared with `CC(=O)NCc1cccc(-c2cc(C(=O)NCC3CN(Cc4ccccc4)CCO3)cnc2-c2ccc(Cl)cc2)c1` (stereo not drawn) [CBK164416T], `CCOC(=O)c1cnc2c(C)cc(Cl)cc2c1N1CCN(Cc2ccccc2)CC1` [CBK265975] is higher in viability at 28.5 h, 10 µM: 88.5% for the first, 108% for the second.

Compared with `CCC1C(=O)NCCN1C(=O)Cc1cccc2cccnc12` (stereo not drawn) [CBK281728], `CC1CCCN(C(=O)CCn2c(-c3ccccn3)cc3cccnc32)C1` (stereo not drawn) [CBK282154] is lower in viability at 28.5 h, 10 µM: 104% for the first, 91.2% for the second.

Going from `CCn1c(SCC(=O)Nc2ccc(C(C)=O)cc2)nnc1-c1cc(Br)ccc1O` [CBK268515] to `CC(C)Cn1c(SCC(=O)Nc2ccc(OC(F)F)cc2)nc(O)cc1=O` [CBK296679], the viability at 28.5 h, 10 µM rises from 89.2% to 91.2%.

Going from `CCn1c(C)cc(C(=O)N2CCN(c3nccc(OC)n3)CC2)c1C` [CBK305791] to `Cc1nc(C2CCN(C(=O)c3ccncc3)CC2)c2sccn12` [CBK282235], the viability at 28.5 h, 10 µM rises from 95.5% to 99.9%.

First: CC(C)(C)c1csc(C(=Cc2ccc(C#N)cc2)C(N)=O)n1 [CBK001154]
Second: CCNC(=O)N1Cc2nc[nH]c2C[C@H]1C(=O)NCc1ccc(C#N)cc1 [CBK288975]
The viability at 28.5 h, 10 µM of the first is lower: 88.7% for the first, 96.2% for the second.

First: COC(=O)c1nc(Cl)c(Cl)nc1NS(=O)(=O)c1cccc(Cl)c1C [CBK004709]
Second: COc1ccc(-c2csc(NC(=O)NS(=O)(=O)c3ccc(C)cc3)n2)cc1 [CBK296117]
The viability at 28.5 h, 10 µM of the first is higher: 91.8% for the first, 88% for the second.

Going from `Cc1cc2c(o1)c1cnn(CC(=O)N3CCCCC3)c(=O)c1n2C` [CBK284217] to `CC(C)(C)c1cc(CN2CCCCC2)c(C(=O)O)o1` [CBK266556C], the viability at 28.5 h, 10 µM rises from 90.5% to 97.8%.

Going from `COc1ccc(NC(=O)CC(C(=O)O)N2CCOCC2)cc1` (stereo not drawn) [CBK266955] to `O=C(O)CCC(=O)Nc1ccc(Oc2ccccc2)cc1` [CBK286957], the viability at 28.5 h, 10 µM falls from 101% to 88.9%.

Going from `Cc1nc(-c2cccnc2)sc1C(=O)NC(C)C1CC2CCC1C2` (stereo not drawn) [CBK281637] to `Cc1cc(Cc2cnc(NC(=O)C3CCS(=O)(=O)C3)s2)ccc1Br` (stereo not drawn) [CBK298281], the viability at 28.5 h, 10 µM rises from 84.2% to 90%.

Going from `O=C(c1nccs1)C1CCN(C(=O)c2cc(F)cc(F)c2)CC1` [CBK284200] to `O=C(CN1CCC(c2cccc(Cc3cccc(F)c3)n2)CC1)Nc1nccs1` [CBK286090], the viability at 28.5 h, 10 µM falls from 96.9% to 91.8%.

Compared with `Cn1nc(NC(=O)c2ccco2)c2c(F)cccc21` [CBK057774], `CN(C)CCNC(=O)c1cc(-c2ccc(Cl)cc2)on1` [CBK116711T] is lower in viability at 28.5 h, 10 µM: 93.7% for the first, 89.7% for the second.

Compared with `O=C(c1cc(C(F)(F)F)cc(C(F)(F)F)c1)N1CCN(Cc2ccc3c(c2)OCO3)CC1` [CBK074756], `COc1ccc(CN2CCN(Cc3cc(Br)ccc3O)CC2)cc1OC` [CBK263632] is lower in viability at 28.5 h, 10 µM: 98.2% for the first, 95.5% for the second.

Compared with `Cn1cc(C2c3ccccc3C(=O)N2CC(=O)O)c2ccccc21` (stereo not drawn) [CBK286555], `O=C(CCN1C(=O)c2ccccc2C1=O)NC(=S)Nc1ccccc1` [CBK267595] is higher in viability at 28.5 h, 10 µM: 90.2% for the first, 108% for the second.

Compared with `COc1ccccc1NC(=O)CSc1nc(O)c2c(C)cc(C)nc2n1` [CBK266095], `C=CCSc1nnc(-c2ccccc2NC(=O)CC)c(O)n1` [CBK266411] is higher in viability at 28.5 h, 10 µM: 91.8% for the first, 115% for the second.

First: CCOc1cc(/C=C2\SC(=S)N(Cc3ccccc3)C2=O)cc(Cl)c1OC(=O)c1ccco1 [CBK265509]
Second: COc1ccc(Cn2c(=O)n(C(=O)CCc3cccc(OC)c3)c3ccccc32)cc1 [CBK106557]
The viability at 28.5 h, 10 µM of the first is lower: 106% for the first, 113% for the second.

Going from `Cc1cc(Cl)cc(C)c1OCCN1CCNCC1` [CBK266057G] to `Cc1ccccc1OC(C)C(=O)NCCCN1CCOCC1` (stereo not drawn) [CBK268628], the viability at 28.5 h, 10 µM rises from 84.4% to 112%.

Going from `COCC1(O)CCN(Cc2sccc2Cl)CC1` [CBK304252] to `CC[C@@H]1CCCCN1C(=O)c1sc2nc(C(C)=O)ccc2c1Cl` [CBK091036], the viability at 28.5 h, 10 µM falls from 98.7% to 88.1%.

Going from `CC1=NN(C(=O)c2c(Cl)c(C)nn2C)C(O)(C(F)(F)F)C1` (stereo not drawn) [CBK058892] to `Cc1cc(C)n2c(SCC(=O)O)nnc2n1` [CBK027406], the viability at 28.5 h, 10 µM falls from 117% to 108%.

First: O=C(O)c1ccc(N2C(=O)CC(N3CCN(Cc4ccccc4)CC3)C2=O)cc1 (stereo not drawn) [CBK261403]
Second: Cc1nc(C2CCN(Cc3ccccc3)C2)c2ccccn12 (stereo not drawn) [CBK282111]
The viability at 28.5 h, 10 µM of the first is higher: 94.7% for the first, 88.1% for the second.

Going from `Cc1occc1-c1nnc(SCC(=O)Nc2cccc3nsnc23)o1` [CBK268979] to `Cc1ccc(-n2c(=O)[nH]c3c(C(N)=O)nc(-c4ccccc4)nc32)cc1C` [CBK287718], the viability at 28.5 h, 10 µM falls from 89.5% to 84.7%.

First: CC(=O)Nc1ccc(CNC(=O)CN(C)Cc2nc(C3CC3)no2)cc1 [CBK306695]
Second: CC(=O)Nc1ccc(CCOc2nccnc2-c2ccc(C)cc2C)cc1 [CBK106985]
The viability at 28.5 h, 10 µM of the first is higher: 114% for the first, 96.7% for the second.

Going from `O=C(Nc1ccc(OCc2ccccc2)cc1)c1cnc2n(c1=O)CCS2` [CBK287378] to `c1ccc(COc2ccccc2-c2cc(Nc3ccc4[nH]ccc4c3)ncn2)cc1` [CBK090856], the viability at 28.5 h, 10 µM rises from 91.3% to 107%.

Going from `O=C(NCCc1c[nH]c2ccccc12)c1cc(Br)cnc1N1CCOCC1` [CBK076224] to `O=C(c1nc2ccccc2[nH]1)N1CCc2ccccc2C1` [CBK200341], the viability at 28.5 h, 10 µM rises from 91.7% to 100%.

Going from `O=S(=O)(c1ccccc1)N1CCN(c2cnccn2)CC1` [CBK287839] to `O=S(=O)(c1ccc(Cl)c(Cl)c1)N1CCOCC1` [CBK043794], the viability at 28.5 h, 10 µM rises from 88.9% to 90.7%.

Compared with `O=C(COc1ccc2ccccc2c1)Oc1ccc2ccccc2c1` [CBK264885], `COc1ccc(CC(=O)c2ccc(O)cc2O)cc1` [CBK012203] is lower in viability at 28.5 h, 10 µM: 110% for the first, 88.2% for the second.

First: N=C1OC2CSCC2N1C(=O)C1(c2ccccc2)CC1 (stereo not drawn) [CBK284524]
Second: S=C(Cc1csc2ccccc12)NC1CCCCC1 [CBK023515]
The viability at 28.5 h, 10 µM of the first is higher: 106% for the first, 88.7% for the second.

`CS(=O)(=O)Nc1ccc2[nH]ccc2c1` [CBK062728] and `COc1cc(NS(=O)(=O)c2ccc(Nc3nc(-c4sc(N)nc4C)cs3)cc2)nc(OC)n1` [CBK262796] are the same in viability at 28.5 h, 10 µM: 91.2% for the first, 91.2% for the second.

Going from `CCCc1n[nH]c(-c2c(F)cccc2F)c1C(=O)OCC` [CBK113546] to `COC(=O)/N=C1/Nc2ccccc2CN1CC(N)=O` [CBK007160], the viability at 28.5 h, 10 µM falls from 92.7% to 91.9%.

First: CSCCC(NC(=O)C1CCC(C)CC1)C(=O)O (stereo not drawn) [CBK286552]
Second: CCn1c(C)nnc1CN(CC1CCCO1)C1CCCC1 (stereo not drawn) [CBK304181]
The viability at 28.5 h, 10 µM of the first is lower: 87.5% for the first, 96.4% for the second.

Compared with `Cc1cc(Oc2ccc(N(C)C)cc2)cc(C2CCCNC2)n1` (stereo not drawn) [CBK283442], `O=C(CSCCOc1ccc(Br)cc1)Nc1ccc2c(c1)OCCO2` [CBK296714] is higher in viability at 28.5 h, 10 µM: 101% for the first, 108% for the second.

Going from `O=C(Cn1ccnc1)NC(c1ccc(Cl)cc1)c1cccnc1` (stereo not drawn) [CBK281481] to `CC(=O)c1ccc(-c2nccnc2NCCc2ccncc2)s1` [CBK037300], the viability at 28.5 h, 10 µM rises from 99.2% to 99.9%.
